Reference: publication PMC7531004, “Discovery of gramicidin A analogues with altered activities by multidimensional screening of a one-bead-one-compound library” (Nature Communications, 2020)
Where a SMILES comes first, the peptide text is derived from it. [ ]: non-standard residue; d: D form. The star is where a group is joined. NHCH2CH2OH = OCCN*; For = O=C*

Experiments:
[1] = H+/Na+ transport assay of bead-derived peptides (one-point); format: biochemical; parameters: key: relative activity; mean of two control wells = 1.00; conditions: bead-derived peptide solution, EYPC/EYPG LUVs;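 also: relative to parent gramicidin A activity set to 1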
Summary of the method: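 Values are normalized fluorescence, with Triton X-100 defining 100% and untreated LUVs 0%, and the two control wells averaging 1.00. Vesicles carried 1.0 mM pyranine and included egg yolk phosphatidylglycerol. Peptides were incubated with them 30 min at room temperature.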

[2] = cell viability/%
Summary of the method: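 First, library peptide stocks are diluted 250-fold in RPMI1640 with 10% heat-inactivated FBS. Next, they are mixed with P388 cells to give 1 × 10^4 cells/mL and incubated 92 h at 37 °C, 5% CO2. Finally, viability (%) is scored by WST-1 absorbance at 415 nm.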

[3] = system: Streptococcus pyogenes SSI-9; assay: Antibacterial activity assay of bead-derived peptides (three concentrations); format: cell-based; parameters: key: +++: inhibition by the 640-fold diluted peptide solution; ++: inhibition by the 160-fold diluted solution; +: inhibition by the 40-fold diluted solution; -: no inhibition; conditions: S. pyogenes, bead-derived peptide solution, three concentrations
Summary of the method: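 Bead-derived library peptide stocks in DMSO were tested undiluted and after 4- and 16-fold DMSO dilution against S. pyogenes SSI-9 (2 × 10^5 CFU/well) in cation-adjusted Mueller Hinton Broth with 5% laked horse blood. After 18 h at 37 °C, wells were scored for precipitation of grown cells.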

SMILES | H+/Na+ transport activity normalized against the value of 1 (1.00) [1] | viability [2] [%] | antibacterial activity [3]
CNC(=O)C[C@@H](NC(=O)[C@H](Cc1c[nH]c2ccccc12)NC(=O)[C@H](NC(=O)[C@H](Cc1c[nH]c2ccccc12)NC(=O)[C@@H](CC(C)C)NC(=O)[C@H](Cc1c[nH]c2ccccc12)NC(=O)[C@H](NC(=O)[C@@H](NC(=O)[C@H](NC(=O)[C@H](C)NC(=O)[C@@H](CC(C)C)NC(=O)[C@H](C)NC(=O)CNC(=O)[C@@H](NC=O)C(C)C)C(C)C)C(C)C)C(C)C)C(C)C)C(=O)N[C@@H](Cc1c[nH]c2ccccc12)C(=O)NCCO [compound 3499] (For-VGA[dL]A[dV]V[dV]W[dL]W[dV]W[dD](NHMe)W-NHCH2CH2OH) | 1.01 | 100 | +
CNC(=O)C[C@@H](NC(=O)[C@@H](NC(=O)[C@H](NC(=O)[C@H](C)NC(=O)[C@@H](CC(C)C)NC(=O)[C@H](C)NC(=O)CNC(=O)[C@@H](NC=O)C(C)C)C(C)C)C(C)C)C(=O)N[C@@H](Cc1c[nH]c2ccccc12)C(=O)N[C@@H](C(=O)N[C@@H](Cc1c[nH]c2ccccc12)C(=O)N[C@@H](C(=O)N[C@@H](Cc1c[nH]c2ccccc12)C(=O)N[C@H](CC(C)C)C(=O)N[C@@H](Cc1c[nH]c2ccccc12)C(=O)NCCO)C(C)C)C(C)C [compound 3596] (For-VGA[dL]A[dV]V[dD](NHMe)W[dV]W[dV]W[dL]W-NHCH2CH2OH) | 1.06 | 100 | -
CC(C)C[C@@H](NC(=O)[C@H](C)NC(=O)CNC(=O)[C@@H](NC=O)C(C)C)C(=O)N[C@@H](C)C(=O)N[C@@H](C(=O)N[C@H](C(=O)N[C@H](CC(C)C)C(=O)N[C@@H](Cc1c[nH]c2ccccc12)C(=O)N[C@@H](C(=O)N[C@@H](Cc1c[nH]c2ccccc12)C(=O)N[C@@H](C(=O)N[C@@H](Cc1c[nH]c2ccccc12)C(=O)N[C@@H](C(=O)N[C@@H](Cc1c[nH]c2ccccc12)C(=O)NCCO)C(C)C)C(C)C)C(C)C)C(C)C)[C@H](C)O [compound 3733] (For-VGA[dL]A[dT]V[dL]W[dV]W[dV]W[dV]W-NHCH2CH2OH) | 1.11 | 100 | -
CNC(=O)C[C@@H](NC(=O)[C@H](Cc1c[nH]c2ccccc12)NC(=O)[C@@H](CC(C)C)NC(=O)[C@H](Cc1c[nH]c2ccccc12)NC(=O)[C@@H](CC(C)C)NC(=O)[C@@H](NC(=O)[C@@H](CC(C)C)NC(=O)[C@H](C)NC(=O)[C@@H](CC(C)C)NC(=O)[C@H](C)NC(=O)CNC(=O)[C@@H](NC=O)C(C)C)C(C)C)C(=O)N[C@@H](Cc1c[nH]c2ccccc12)C(=O)N[C@@H](C(=O)N[C@@H](Cc1c[nH]c2ccccc12)C(=O)NCCO)[C@H](C)O [compound 3773] (For-VGA[dL]A[dL]V[dL]W[dL]W[dD](NHMe)W[dT]W-NHCH2CH2OH) | 1.03 | 100 | -
CC(C)C[C@@H](NC(=O)[C@H](C)NC(=O)[C@H](NC(=O)[C@H](C)NC(=O)CNC(=O)[C@@H](NC=O)C(C)C)[C@H](C)O)C(=O)N[C@H](C(=O)N[C@H](CC(C)C)C(=O)N[C@@H](Cc1c[nH]c2ccccc12)C(=O)N[C@H](CC(C)C)C(=O)N[C@@H](Cc1c[nH]c2ccccc12)C(=O)N[C@H](CC(C)C)C(=O)N[C@@H](Cc1c[nH]c2ccccc12)C(=O)N[C@@H](C(=O)N[C@@H](Cc1c[nH]c2ccccc12)C(=O)NCCO)C(C)C)C(C)C [compound 3778] (For-VGA[dT]A[dL]V[dL]W[dL]W[dL]W[dV]W-NHCH2CH2OH) | 1.08 | 100 | -
CC(C)C[C@@H](NC(=O)[C@H](C)NC(=O)CNC(=O)[C@@H](NC=O)C(C)C)C(=O)N[C@@H](C)C(=O)N[C@H](CC(C)C)C(=O)N[C@H](C(=O)N[C@@H](C(=O)N[C@@H](Cc1c[nH]c2ccccc12)C(=O)N[C@@H](C(=O)N[C@@H](Cc1c[nH]c2ccccc12)C(=O)N[C@@H](C(=O)N[C@@H](Cc1c[nH]c2ccccc12)C(=O)N[C@H](CC(C)C)C(=O)N[C@@H](Cc1c[nH]c2ccccc12)C(=O)NCCO)C(C)C)[C@H](C)O)[C@H](C)O)C(C)C [compound 3782] (For-VGA[dL]A[dL]V[dT]W[dT]W[dV]W[dL]W-NHCH2CH2OH) | 1.12 | 100 | -
CC(C)C[C@@H](NC(=O)[C@H](Cc1c[nH]c2ccccc12)NC(=O)[C@@H](CC(C)C)NC(=O)[C@H](Cc1c[nH]c2ccccc12)NC(=O)[C@@H](CC(C)C)NC(=O)[C@H](Cc1c[nH]c2ccccc12)NC(=O)[C@H](NC(=O)[C@@H](NC(=O)[C@H](NC(=O)[C@H](C)NC(=O)[C@H](NC(=O)[C@H](C)NC(=O)CNC(=O)[C@@H](NC=O)C(C)C)[C@H](C)O)C(C)C)C(C)C)C(C)C)C(=O)N[C@@H](Cc1c[nH]c2ccccc12)C(=O)NCCO [compound 3786] (For-VGA[dT]A[dV]V[dV]W[dL]W[dL]W[dL]W-NHCH2CH2OH) | 1.18 | 100 | -
CC(C)C[C@@H](NC(=O)[C@H](C)NC(=O)[C@H](NC(=O)[C@H](C)NC(=O)CNC(=O)[C@@H](NC=O)C(C)C)C(C)C)C(=O)N[C@H](C(=O)N[C@H](CC(C)C)C(=O)N[C@@H](Cc1c[nH]c2ccccc12)C(=O)N[C@H](CC(C)C)C(=O)N[C@@H](Cc1c[nH]c2ccccc12)C(=O)N[C@@H](C(=O)N[C@@H](Cc1c[nH]c2ccccc12)C(=O)N[C@@H](C(=O)N[C@@H](Cc1c[nH]c2ccccc12)C(=O)NCCO)[C@H](C)O)C(C)C)C(C)C [compound 3828] (For-VGA[dV]A[dL]V[dL]W[dL]W[dV]W[dT]W-NHCH2CH2OH) | 1.02 | 95.2 | +
CNC(=O)C[C@@H](NC(=O)[C@H](Cc1c[nH]c2ccccc12)NC(=O)[C@@H](CC(C)C)NC(=O)[C@H](Cc1c[nH]c2ccccc12)NC(=O)[C@H](NC(=O)[C@H](Cc1c[nH]c2ccccc12)NC(=O)[C@@H](CC(C)C)NC(=O)[C@@H](NC(=O)[C@@H](CC(C)C)NC(=O)[C@H](C)NC(=O)[C@@H](CC(C)C)NC(=O)[C@H](C)NC(=O)CNC(=O)[C@@H](NC=O)C(C)C)C(C)C)C(C)C)C(=O)N[C@@H](Cc1c[nH]c2ccccc12)C(=O)NCCO [compound 3854] (For-VGA[dL]A[dL]V[dL]W[dV]W[dL]W[dD](NHMe)W-NHCH2CH2OH) | 1.18 | 100 | -
CC(C)C[C@@H](NC(=O)[C@H](C)NC(=O)CNC(=O)[C@@H](NC=O)C(C)C)C(=O)N[C@@H](C)C(=O)N[C@H](CC(C)C)C(=O)N[C@H](C(=O)N[C@@H](C(=O)N[C@@H](Cc1c[nH]c2ccccc12)C(=O)N[C@@H](C(=O)N[C@@H](Cc1c[nH]c2ccccc12)C(=O)N[C@H](CC(C)C)C(=O)N[C@@H](Cc1c[nH]c2ccccc12)C(=O)N[C@H](CC(C)C)C(=O)N[C@@H](Cc1c[nH]c2ccccc12)C(=O)NCCO)[C@H](C)O)[C@H](C)O)C(C)C [compound 3858] (For-VGA[dL]A[dL]V[dT]W[dT]W[dL]W[dL]W-NHCH2CH2OH) | 1.28 | 100 | -
CC(C)C[C@@H](NC(=O)[C@H](C)NC(=O)CNC(=O)[C@@H](NC=O)C(C)C)C(=O)N[C@@H](C)C(=O)N[C@@H](C(=O)N[C@H](C(=O)N[C@@H](C(=O)N[C@@H](Cc1c[nH]c2ccccc12)C(=O)N[C@H](CC(C)C)C(=O)N[C@@H](Cc1c[nH]c2ccccc12)C(=O)N[C@@H](C(=O)N[C@@H](Cc1c[nH]c2ccccc12)C(=O)N[C@H](CC(C)C)C(=O)N[C@@H](Cc1c[nH]c2ccccc12)C(=O)NCCO)C(C)C)C(C)C)C(C)C)C(C)C [compound 3861] (For-VGA[dL]A[dV]V[dV]W[dL]W[dV]W[dL]W-NHCH2CH2OH) | 1.51 | 0.1 | ++
CNC(=O)C[C@@H](NC(=O)[C@H](Cc1c[nH]c2ccccc12)NC(=O)[C@H](NC(=O)[C@H](Cc1c[nH]c2ccccc12)NC(=O)[C@H](NC(=O)[C@H](Cc1c[nH]c2ccccc12)NC(=O)[C@@H](CC(C)C)NC(=O)[C@@H](NC(=O)[C@@H](CC(C)C)NC(=O)[C@H](C)NC(=O)[C@H](NC(=O)[C@H](C)NC(=O)CNC(=O)[C@@H](NC=O)C(C)C)C(C)C)C(C)C)C(C)C)C(C)C)C(=O)N[C@@H](Cc1c[nH]c2ccccc12)C(=O)NCCO [compound 3866] (For-VGA[dV]A[dL]V[dL]W[dV]W[dV]W[dD](NHMe)W-NHCH2CH2OH) | 1.31 | 100 | -
CNC(=O)C[C@@H](NC(=O)[C@H](Cc1c[nH]c2ccccc12)NC(=O)[C@H](NC(=O)[C@H](Cc1c[nH]c2ccccc12)NC(=O)[C@@H](CC(C)C)NC(=O)[C@@H](NC(=O)[C@@H](CC(C)C)NC(=O)[C@H](C)NC(=O)[C@@H](CC(C)C)NC(=O)[C@H](C)NC(=O)CNC(=O)[C@@H](NC=O)C(C)C)C(C)C)C(C)C)C(=O)N[C@@H](Cc1c[nH]c2ccccc12)C(=O)N[C@@H](C(=O)N[C@@H](Cc1c[nH]c2ccccc12)C(=O)NCCO)[C@H](C)O [compound 3885] (For-VGA[dL]A[dL]V[dL]W[dV]W[dD](NHMe)W[dT]W-NHCH2CH2OH) | 1.00 | 100 | -
